Reference: patent US7985072B2, “Method and apparatus for tooth rejuvenation and hard tissue modification” (Rejuvedent LLC, priority 2005, dated 2011)

How the values were obtained:
[1] = 180-minute exposure of tooth halves to citric acid solution or gel, then methylene blue; conditions: pH=1.5, +20° C., 180 minutes
Method: Exposure in both cases was for 180 minutes and the tooth was then washed in distilled water. […] The tooth was then exposed to an aqueous solution of methylene blue.

gingival tissue = test: Safe treatment time (STT): onset of discomfort on subjects' gingival tissue; format: in vivo, human; parameters: key to effect of discomfort on gingival tissue: “−” means that the subject experienced no discomfort; “+” means that some discomfort was reported
Method: It was discovered, that a high concentration and low pH acid can work well for exposure times long enough to produce significant changes to hard tissue. The use of high concentration, edible acids for treatment of hard tissues is limited by the action of such acids on soft tissues. […] The typical application time for the desired depth of etching can be from 1-5 minutes for home use, and up for up to 10-20 minutes for professional use. The safe treatment time (STT) is defined as the time during which acid can interact with the soft tissues without damaging them. The STT depends on the acid concentration and the temperature, i.e. STT (pH,T), where pH is the pH of the acid, and T is the temperature of the acid. […] The experiment was conducted on subjects with healthy oral tissues. Prior to treatment, the acid was heated to a control temperature T, using a thermostat, and a small volume (approximately 5×10^−3 ml) of acid was applied to an area of the subject's gingival tissue. The thermo-relaxation time of such a volume is approximately 5-10 seconds. To provide for a relatively constant temperature on the tissue surface, the acid was reapplied at the same temperature T to the same area every 5-10 seconds. This procedure was repeated until the subject reported discomfort. A feeling of discomfort always precedes tissue damage. Therefore, the time of the onset of discomfort can be used as an estimate of the STT with a certain safety margin.

[2] = system: maxillary right central incisor of a volunteer; test: Example 2: at-home tooth whitening treatment; conditions: for Normalized optical coefficient of reflection: before treatment 1
[3] = Comparison of edible acids as bleaching agents for removal of stains in enamel; conditions: low pH (<2.5), intact enamel
Method: The ability of an aqueous acidic solution to deconstruct and dissolve both organic and inorganic components depends on the period of time, pH, concentration, and temperature at which the process occurs. The color of the enamel after stain removal and bleaching is determined by how closely the structure after etching matches the natural structure and how well light is scattered from the surface of the tooth. Remineralization is however, a slow process, so caution in carrying out the procedure is recommended, and it is desirable to protect the new surface with a hard material. To achieve this, the present invention proposes the use of a high concentration of acid to minimize the time of treatment. For a high concentration of acid to be used safely within the oral cavity, two fundamental safety concerns need to be addressed: firstly toxicity and secondly soft tissue damage. To completely eliminate the toxicity problem, especially for home use, we propose the use of an edible acid which is non-toxic when ingested. The volume of acid for any application in the present invention is limited to several cubic centimeters. After dissolution in saliva the concentration of the acid ingested will drop, and the pH will increase, which is typical for foodstuffs. A typical pH for food acids is 2.5 or more. We have studied the effect of a low pH (<2.5) edible acid on intact enamel. […]

[4] = Six-hour exposure of extracted teeth to gel or citric acid; conditions: +24° C.
From the text: Control of etching using highly concentrated edible acid can be achieved by using different additives. The interaction between acid and hard tissue leads to a dissolution of mineral components and modification of organic components. Three types of dissolution are known: Type I, where enamel rods are removed preferentially, Type II, where the organic matrix is removed preferentially, and Type III, where both Type I and Type II dissolution take place. […] The present invention, proposes to control the etching process, using edible acid with a special additive. One of control mechanisms involves additives, including, but not limited to, the ions of Ca Cr, Ba Cd, Mg, P, SiF, and their compounds, such as PO4. Other non-organic or organic additives may also be used. Additions of such ion combinations may slow the dissolution of the inter-prismatic regions or may provide for re-crystallization of hydroxyapatite crystallites, or the building of new crystallites of fluroapatite. The use of such additives can be effective in the control of tooth etching, or in the preparation of the tooth surface for the application of a protective or cosmetic coating, or for the thermal re-crystallization of the tooth surface.
Extracted teeth with healthy enamel were used in the experiment. One half of enamel surface of each tooth was covered with a protective cover (“control side”). The other side (“treatment side”) was left unprotected. […]

- safe treatment time (STT) (gingival tissue; 50° C., pH of 1.5): greater than 8 minutes
- effect of discomfort on gingival tissue (gingival tissue; pH=1.5, T +20 °C, t 1 min): −
- effect of discomfort on gingival tissue (gingival tissue; pH=1.5, T +20 °C, t 2 min): −
- effect of discomfort on gingival tissue (gingival tissue; pH=1.5, T +20 °C, t 3 min): −
- effect of discomfort on gingival tissue (gingival tissue; pH=1.5, T +20 °C, t 4 min): −
- effect of discomfort on gingival tissue (gingival tissue; pH=1.5, T +20 °C, t 5 min): −
- effect of discomfort on gingival tissue (gingival tissue; pH=1.5, T +20 °C, t 6 min): −
- effect of discomfort on gingival tissue (gingival tissue; pH=1.5, T +20 °C, t 7 min): −
- effect of discomfort on gingival tissue (gingival tissue; pH=1.5, T +20 °C, t 8 min): −
- effect of discomfort on gingival tissue (gingival tissue; pH=1.5, T +20 °C, t 9 min): −
- effect of discomfort on gingival tissue (gingival tissue; pH=1.5, T +20 °C, t 10 min): −
- effect of discomfort on gingival tissue (gingival tissue; pH=1.5, T +20 °C, t 11 min): −
- effect of discomfort on gingival tissue (gingival tissue; pH=1.5, T +20 °C, t 12 min): +
- effect of discomfort on gingival tissue (gingival tissue; pH=1.5, T +36 °C, t 1 min): −
- effect of discomfort on gingival tissue (gingival tissue; pH=1.5, T +36 °C, t 2 min): −
- effect of discomfort on gingival tissue (gingival tissue; pH=1.5, T +36 °C, t 3 min): −
- effect of discomfort on gingival tissue (gingival tissue; pH=1.5, T +36 °C, t 4 min): −
- effect of discomfort on gingival tissue (gingival tissue; pH=1.5, T +36 °C, t 5 min): −
- effect of discomfort on gingival tissue (gingival tissue; pH=1.5, T +36 °C, t 6 min): −
- effect of discomfort on gingival tissue (gingival tissue; pH=1.5, T +36 °C, t 7 min): −
- effect of discomfort on gingival tissue (gingival tissue; pH=1.5, T +36 °C, t 8 min): −
- effect of discomfort on gingival tissue (gingival tissue; pH=1.5, T +36 °C, t 9 min): −
- effect of discomfort on gingival tissue (gingival tissue; pH=1.5, T +36 °C, t 10 min): +
- effect of discomfort on gingival tissue (gingival tissue; pH=1.5, T +50 °C, t 1 min): −
- effect of discomfort on gingival tissue (gingival tissue; pH=1.5, T +50 °C, t 2 min): −
- effect of discomfort on gingival tissue (gingival tissue; pH=1.5, T +50 °C, t 3 min): −
- effect of discomfort on gingival tissue (gingival tissue; pH=1.5, T +50 °C, t 4 min): −
- effect of discomfort on gingival tissue (gingival tissue; pH=1.5, T +50 °C, t 5 min): −
- effect of discomfort on gingival tissue (gingival tissue; pH=1.5, T +50 °C, t 6 min): −
- effect of discomfort on gingival tissue (gingival tissue; pH=1.5, T +50 °C, t 7 min): −
- effect of discomfort on gingival tissue (gingival tissue; pH=1.5, T +50 °C, t 8 min): +
- effect of discomfort on gingival tissue (gingival tissue; pH=1.5, T +70 °C, t 1 min): −
- effect of discomfort on gingival tissue (gingival tissue; pH=1.5, T +70 °C, t 2 min): −
- effect of discomfort on gingival tissue (gingival tissue; pH=1.5, T +70 °C, t 3 min): −
- effect of discomfort on gingival tissue (gingival tissue; pH=1.5, T +70 °C, t 4 min): −
- effect of discomfort on gingival tissue (gingival tissue; pH=1.5, T +70 °C, t 5 min): −
- effect of discomfort on gingival tissue (gingival tissue; pH=1.5, T +70 °C, t 6 min): +
- effect of discomfort on gingival tissue (gingival tissue; pH=1.5, T +90 °C, t 1 min): −
- effect of discomfort on gingival tissue (gingival tissue; pH=1.5, T +90 °C, t 2 min): −
- effect of discomfort on gingival tissue (gingival tissue; pH=1.5, T +90 °C, t 3 min): +
- dentinal hypersensitivity and change in gingival tissue ([2]; after treatment or during review appointments): No dentinal hypersensitivity
- pain or discomfort throughout treatment ([2]; daily 2 minutes for three weeks): did not report any pain or discomfort
- detrimental changes in soft tissues or enamel (post-treatment caries) ([2]; four month review visit): no detrimental changes
Structure (SMILES): O=C(O)CC(O)(CC(=O)O)C(=O)O [citric acid]
- coloration by aqueous methylene blue after exposure [1]: colored by methylene blue
- type of enamel etching [1]: Type I etching
- whitening effect [1]: strong whitening effect
- damage to soft tissues (gingival tissue; high concentrations and high temperatures (up to 90° C.)): did not cause damage to soft tissues
- Normalized optical coefficient of reflection ([2]; 1 months after treatment): 1.3 a.u.
- Normalized optical coefficient of reflection ([2]; 4 months after treatment): 1.15 a.u.
- Normalized optical coefficient of reflection ([2]; after 3 weeks of daily treatment (pH=1.5, room temperature, 2 minutes)): 1.34 a.u.
- change in enamel gloss and reflection ([2]; after three-week treatment): No visible change in enamel gloss and reflection
- improvement in tooth whitening (coefficient of reflection for white light) versus original color ([2]; after three-week treatment): 35%
- improvement compared with original coefficient of reflection ([2]; four months after treatment): approximately 15%
- whitening effect exceeding the original ([2]; one month after treatment): 33%
- effectiveness among edible acids (lactic, malic, tartaric, oxalic acid) [3]: most effective
- hardness of treated surface (dental probe / versus control side) [4]: easily damaged by scratching with a dental probe
- predominant etching pattern [4]: Type I etching
- specular reflection property of tooth surface [4]: completely lost its specular reflection property
- whitening effect of treated sides [4]: comparable
